Laboratory results reported in the supplement of paper PMC10307832.

Experiments:
Assay in all cases: relative viability (nuclei count vs DMSO), 5 days (fraction); higher = more cells survive
A-427 = tested on: A-427
In short: (§1)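 After 5 days of treatment, lung cancer cells in 1536-well plates were fixed and stained in a single step (final 0.05% Triton X-100, 1% formaldehyde, 1 ug/ml Hoechst) and their nuclei counted on 4× images. Treatment had been applied by pin tool the day after seeding as one drug alone or as a fixed anchor-drug dose with five library-drug doses (not always all listed) in √10 steps. Relative viability is the nuclei count of treated wells divided by that of vehicle wells, and values are medians of duplicate plates.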

NCI-H2087 = tested on: NCI-H2087
In short: as §1

NCI-H650 = tested on: NCI-H650
In short: as §1

HCC-78 = tested on: HCC-78
In short: as §1

HCC-44 = tested on: HCC-44
In short: as §1

EPLC-272H = tested on: EPLC-272H
In short: as §1

NCI-H1395 = tested on: NCI-H1395
In short: as §1

LOU-NH91 = tested on: LOU-NH91
In short: as §1

NCI-H1915 = tested on: NCI-H1915
In short: as §1

NCI-H2023 = tested on: NCI-H2023
In short: as §1

NCI-H661 = tested on: NCI-H661
In short: as §1

NCI-H596 = tested on: NCI-H596
In short: as §1

NCI-H838 = tested on: NCI-H838
In short: as §1

NCI-H1650 = tested on: NCI-H1650
In short: as §1

COR-L23 = tested on: COR-L23
In short: as §1

NCI-H1734 = tested on: NCI-H1734
In short: as §1

ChaGo-K-1 = tested on: ChaGo-K-1
In short: as §1

NCI-H358 = tested on: NCI-H358
In short: as §1

HCC-366 = tested on: HCC-366
In short: as §1

NCI-H3122 = tested on: NCI-H3122
In short: as §1

SK-MES-1 = tested on: SK-MES-1
In short: as §1

EKVX = tested on: EKVX
In short: as §1

HOP-62 = tested on: HOP-62
In short: as §1

O=c1[nH]c2ccccc2n1C1CCN(CCCC(c2ccc(F)cc2)c2ccc(F)cc2)CC1 [Pimozide] + Nc1nc2[nH]cc(CCc3ccc(C(=O)N[C@@H](CCC(=O)O)C(=O)O)cc3)c2c(=O)[nH]1 [Pemetrexed] (partner 0.2 µM)
relative viability (A-427; first compound 0.08 µM): 0.992 | relative viability (A-427; first compound 0.253 µM): 0.979 | relative viability (A-427; first compound 0.8 µM): 0.928 | relative viability (A-427; first compound 2.53 µM): 0.899 | relative viability (A-427; first compound 8 µM): 0.845 | relative viability (NCI-H2087; first compound 0.08 µM): 0.655 | relative viability (NCI-H2087; first compound 0.253 µM): 0.608 | relative viability (NCI-H2087; first compound 2.53 µM): 0.616 | relative viability (NCI-H2087; first compound 8 µM): 0.642 | relative viability (NCI-H650; first compound 0.08 µM): 0.939 | relative viability (NCI-H650; first compound 0.253 µM): 0.936 | relative viability (NCI-H650; first compound 0.8 µM): 0.793 | relative viability (NCI-H650; first compound 2.53 µM): 0.914 | relative viability (NCI-H650; first compound 8 µM): 1.02 | relative viability (HCC-78; first compound 0.08 µM): 0.911 | relative viability (HCC-78; first compound 0.8 µM): 0.91 | relative viability (HCC-78; first compound 2.53 µM): 0.872 | relative viability (HCC-78; first compound 8 µM): 0.87 | relative viability (HCC-44; first compound 0.08 µM): 0.67 | relative viability (HCC-44; first compound 0.253 µM): 0.666 | relative viability (HCC-44; first compound 0.8 µM): 0.577 | relative viability (HCC-44; first compound 2.53 µM): 0.618 | relative viability (HCC-44; first compound 8 µM): 0.577 | relative viability (EPLC-272H; first compound 0.08 µM): 0.319 | relative viability (EPLC-272H; first compound 0.253 µM): 0.285 | relative viability (EPLC-272H; first compound 0.8 µM): 0.271 | relative viability (EPLC-272H; first compound 2.53 µM): 0.179 | relative viability (EPLC-272H; first compound 8 µM): 0.238 | relative viability (NCI-H1395; first compound 0.08 µM): 0.887 | relative viability (NCI-H1395; first compound 0.253 µM): 0.825 | relative viability (NCI-H1395; first compound 0.8 µM): 0.822 | relative viability (NCI-H1395; first compound 2.53 µM): 0.823 | relative viability (NCI-H1395; first compound 8 µM): 0.831 | relative viability (LOU-NH91; first compound 0.08 µM): 0.389 | relative viability (LOU-NH91; first compound 0.253 µM): 0.474 | relative viability (LOU-NH91; first compound 0.8 µM): 0.395 | relative viability (LOU-NH91; first compound 2.53 µM): 0.384 | relative viability (LOU-NH91; first compound 8 µM): 0.384 | relative viability (NCI-H1915; first compound 0.08 µM): 0.482 | relative viability (NCI-H1915; first compound 0.253 µM): 0.415 | relative viability (NCI-H1915; first compound 2.53 µM): 0.448 | relative viability (NCI-H1915; first compound 8 µM): 0.423 | relative viability (NCI-H2023; first compound 0.08 µM): 0.215 | relative viability (NCI-H2023; first compound 0.253 µM): 0.231 | relative viability (NCI-H2023; first compound 0.8 µM): 0.226 | relative viability (NCI-H2023; first compound 2.53 µM): 0.179 | relative viability (NCI-H2023; first compound 8 µM): 0.164 | relative viability (NCI-H661; first compound 0.08 µM): 0.914 | relative viability (NCI-H661; first compound 0.253 µM): 0.898 | relative viability (NCI-H661; first compound 0.8 µM): 0.844 | relative viability (NCI-H661; first compound 2.53 µM): 0.877 | relative viability (NCI-H661; first compound 8 µM): 0.797 | relative viability (NCI-H596; first compound 0.08 µM): 0.538 | relative viability (NCI-H596; first compound 0.253 µM): 0.487 | relative viability (NCI-H596; first compound 0.8 µM): 0.534 | relative viability (NCI-H596; first compound 2.53 µM): 0.436 | relative viability (NCI-H596; first compound 8 µM): 0.479 | relative viability (NCI-H838; first compound 0.08 µM): 0.251 | relative viability (NCI-H838; first compound 0.253 µM): 0.242 | relative viability (NCI-H838; first compound 0.8 µM): 0.238 | relative viability (NCI-H838; first compound 2.53 µM): 0.236 | relative viability (NCI-H838; first compound 8 µM): 0.221 | relative viability (NCI-H1650; first compound 0.08 µM): 0.338 | relative viability (NCI-H1650; first compound 0.253 µM): 0.341 | relative viability (NCI-H1650; first compound 0.8 µM): 0.326 | relative viability (NCI-H1650; first compound 2.53 µM): 0.356 | relative viability (NCI-H1650; first compound 8 µM): 0.408 | relative viability (COR-L23; first compound 0.08 µM): 0.2 | relative viability (COR-L23; first compound 0.253 µM): 0.192 | relative viability (COR-L23; first compound 0.8 µM): 0.19 | relative viability (COR-L23; first compound 2.53 µM): 0.192 | relative viability (COR-L23; first compound 8 µM): 0.192 | relative viability (NCI-H1734; first compound 0.08 µM): 0.401 | relative viability (NCI-H1734; first compound 0.253 µM): 0.436 | relative viability (NCI-H1734; first compound 0.8 µM): 0.401 | relative viability (NCI-H1734; first compound 2.53 µM): 0.416 | relative viability (NCI-H1734; first compound 8 µM): 0.434 | relative viability (ChaGo-K-1; first compound 0.08 µM): 0.248 | relative viability (ChaGo-K-1; first compound 0.253 µM): 0.277 | relative viability (ChaGo-K-1; first compound 0.8 µM): 0.245 | relative viability (ChaGo-K-1; first compound 2.53 µM): 0.267 | relative viability (ChaGo-K-1; first compound 8 µM): 0.254 | relative viability (NCI-H358; first compound 0.08 µM): 0.171 | relative viability (NCI-H358; first compound 0.253 µM): 0.178 | relative viability (NCI-H358; first compound 0.8 µM): 0.159 | relative viability (NCI-H358; first compound 2.53 µM): 0.172 | relative viability (NCI-H358; first compound 8 µM): 0.147 | relative viability (HCC-366; first compound 0.08 µM): 0.166 | relative viability (HCC-366; first compound 0.253 µM): 0.173 | relative viability (HCC-366; first compound 0.8 µM): 0.12 | relative viability (HCC-366; first compound 2.53 µM): 0.152 | relative viability (HCC-366; first compound 8 µM): 0.189 | relative viability (NCI-H3122; first compound 0.08 µM): 0.238 | relative viability (NCI-H3122; first compound 0.253 µM): 0.206 | relative viability (NCI-H3122; first compound 0.8 µM): 0.178 | relative viability (NCI-H3122; first compound 2.53 µM): 0.195 | relative viability (NCI-H3122; first compound 8 µM): 0.2 | relative viability (SK-MES-1; first compound 0.08 µM): 0.982 | relative viability (SK-MES-1; first compound 0.253 µM): 0.861 | relative viability (SK-MES-1; first compound 0.8 µM): 0.919 | relative viability (SK-MES-1; first compound 2.53 µM): 0.888 | relative viability (SK-MES-1; first compound 8 µM): 0.902 | relative viability (EKVX; first compound 0.253 µM): 0.336 | relative viability (EKVX; first compound 0.8 µM): 0.362 | relative viability (EKVX; first compound 2.53 µM): 0.397 | relative viability (EKVX; first compound 8 µM): 0.412 | relative viability (HOP-62; first compound 0.08 µM): 0.275 | relative viability (HOP-62; first compound 0.253 µM): 0.362 | relative viability (HOP-62; first compound 2.53 µM): 0.283 | relative viability (HOP-62; first compound 8 µM): 0.284
